Data set [1] can be described thus: Desmopressin flux through skin (microprojection solid film system and gel pack), from urinary excretion of tritium. It is filed as in vivo, HGPs. To be noted: 5 mg tritiated desmopressin solid film, 2% HEC gel pack; 1 h and 24 h; FIG. 20. As for the experimental part: An experiment was conducted to test the concept of the hydratable system using the peptide desmopressin. A system similar to that presented in Example 2 was provided.
The system included a 2 cm^2 solid film containing 5 mg tritiated desmopressin. The thin film was prepared by casting a 20 mil thick aqueous solution comprised of 10 wt. % HPMC 2910 USP and 20 wt. % glycerol. The film was dried and punched into 2 cm^2 discs. Each disc was imbibed with a 20 wt. % ^3H desmopressin solution and subsequently dried. The solid film was subsequently disposed proximate the top surface of the microprojection member. The gel pack or gel reservoir contained 0.120 mL of 2% HEC (NATROSOL® 250 HHX) in water.
(§1) Following application of the microprojection solid film system in HGPs, the gel pack was placed on top of the microprojection member, as illustrated in FIG. 12. At 1 h and 24 h after application, three (3) systems from each group of HGPs were removed and the residual drug washed form the skin. The amount of the drug penetrated during these times intervals was determined by measuring urinary excretion of tritium (previous studies had shown that in HGPs, 71% of ^3H desmopressin injected intravenously is excreted in urine).

Data set [2] in a line: Urinary excretion of 3H desmopressin injected intravenously (previous studies). It counts as in vivo. To be noted: hairless, urine, iv, total radioactivity, injected intravenously in HGPs, read-out: fraction excreted in urine. As for the experimental part:
as §1

The results in this text go back to patent US20050089554A1, “Apparatus and method for enhancing transdermal drug delivery” (priority 2003, published 2005).

For the compound `NC(=O)CC[C@@H]1NC(=O)[C@H](Cc2ccccc2)NC(=O)[C@H](Cc2ccc(O)cc2)NC(=O)CCSSC[C@@H](C(=O)N2CCC[C@H]2C(=O)N[C@H](CCCN=C(N)N)C(=O)NCC(N)=O)NC(=O)[C@H](CC(N)=O)NC1=O` [desmopressin], the “flux through the skin, time dependence” value in data set [1] is on record as “time dependant flux”. The dose excreted in data set [2] was found to be 71%.
